Data as given in publication PMC10850145, “Hormonal steroids induce multidrug resistance and stress response genes in Neisseria gonorrhoeae by binding to MtrR” (Nature Communications, 2024).
Where “and” joins values, the source holds several entries; their conditions need not be identical. Identical values can stand only once. Like-named read-outs stand apart in the source and are kept apart here.

Test system: mtrC-lacZ expression
Assay type: cell-based, Neisseria gonorrhoeae
Settings: for Miller units, single well / Miller units, Mean: upper 4-row block; for Miller units, single well: individual replicate; for Miller units, Mean: mean of 4 wells; for β-galactosidase activity, single replicate: ΔmtrR + mtrR R176E in trans; for β-galactosidase activity, individual replicate / β-galactosidase activity, Miller units (single replicate): mtrR WT in cis; for β-galactosidase activity, individual replicate: single replicate values, second (right) block
[1] = 6.25 µM hormone, plate columns 1-6 (WT)
[2] = 6.25 µM hormone, plate columns 7-12 (second strain, not WT)
[3] = 12.5 µM hormone, plate columns 1-6 (WT)
[4] = 12.5 µM hormone, plate columns 7-12 (second strain, not WT)
[5] = 25 µM hormone, plate columns 7-12 (second strain, not WT)
[6] = 50 µM hormone, plate columns 1-6 (WT)
[7] = 50 µM hormone, plate columns 7-12 (second strain, not WT)
[8] = mtrC-lacZ, ΔmtrR + mtrR D171A in trans, 6.25 µM hormone, single replicate
[9] = mtrC-lacZ, ΔmtrR + mtrR D171A in trans, 12.5 µM hormone, single replicate
[10] = mtrC-lacZ, ΔmtrR + mtrR D171A in trans, 25 µM hormone, single replicate
[11] = mtrC-lacZ, ΔmtrR + mtrR D171A in trans, 50 µM hormone, single replicate
[12] = mtrC-lacZ, ΔmtrR + mtrR WT in trans, 6.25 µM hormone, single replicate
[13] = mtrC-lacZ, ΔmtrR + mtrR WT in trans, 12.5 µM hormone, single replicate
[14] = mtrC-lacZ, ΔmtrR + mtrR WT in trans, 25 µM hormone, single replicate
[15] = mtrC-lacZ, ΔmtrR + mtrR WT in trans, 50 µM hormone, single replicate

Structure (SMILES): CC(=O)[C@H]1CC[C@H]2[C@@H]3CCC4=CC(=O)CC[C@]4(C)[C@H]3CC[C@]12C [Progesterone, progesterone]
- Miller units (6.25 µM hormone, plate columns 1-6 (WT), plate rows 1-4 (mtrC), single well): 82 Miller units and 48 Miller units and 89 Miller units
- Miller units, single well [1]: 82 Miller units and 48 Miller units and 89 Miller units and 47 Miller units
- Miller units, Mean [1]: 66 Miller units
- Miller units (6.25 µM hormone, plate columns 7-12 (second strain not given), plate rows 1-4 (mtrC), single well): 315 Miller units and 180 Miller units and 172 Miller units
- Miller units, single well [2]: 315 Miller units and 180 Miller units and 172 Miller units and 146 Miller units
- Miller units, Mean [2]: 203 Miller units
- Miller units (12.5 µM hormone, plate columns 1-6 (WT), plate rows 1-4 (mtrC), single well): 112 Miller units and 91 Miller units and 70 Miller units
- Miller units, single well [3]: 112 Miller units and 91 Miller units and 70 Miller units and 43 Miller units
- Miller units, Mean [3]: 79 Miller units
- Miller units (12.5 µM hormone, plate columns 7-12 (second strain not given), plate rows 1-4 (mtrC), single well): 228 Miller units and 168 Miller units and 142 Miller units
- Miller units, single well [4]: 228 Miller units and 168 Miller units and 142 Miller units and 163 Miller units
- Miller units, Mean [4]: 175 Miller units
- Miller units (25 µM hormone, plate columns 1-6 (WT), plate rows 1-4 (mtrC), single well): 152 Miller units and 193 Miller units
- Miller units, single well (25 µM hormone, plate columns 1-6 (WT)): 152 Miller units and 193 Miller units and 125 Miller units
- Miller units (25 µM hormone, plate columns 7-12 (second strain not given), plate rows 1-4 (mtrC), single well): 253 Miller units and 170 Miller units and 160 Miller units
- Miller units, single well [5]: 253 Miller units and 170 Miller units and 160 Miller units and 118 Miller units
- Miller units, Mean [5]: 175 Miller units
- Miller units (50 µM hormone, plate columns 1-6 (WT), plate rows 1-4 (mtrC), single well): 185 Miller units and 157 Miller units and 126 Miller units
- Miller units, single well [6]: 185 Miller units and 157 Miller units and 126 Miller units and 75 Miller units
- Miller units, Mean [6]: 136 Miller units
- Miller units (50 µM hormone, plate columns 7-12 (second strain not given), plate rows 1-4 (mtrC), single well): 186 Miller units and 138 Miller units and 118 Miller units
- Miller units, single well [7]: 186 Miller units and 138 Miller units and 118 Miller units and 96 Miller units
- Miller units, Mean [7]: 134 Miller units
- induction of mtrC expression (complemented (MtrR+) strains, increasing hormone): could be induced
- induction of mtrC expression (loss of MtrR or MtrR-D171A strain): abrogated
- Miller units [8]: 150 Miller units and 142 Miller units
- β-galactosidase activity (Miller units) [8]: 147 Miller units and 144 Miller units and 150 Miller units and 142 Miller units
- Miller units [9]: 139 Miller units and 154 Miller units
- β-galactosidase activity (Miller units) [9]: 146 Miller units and 130 Miller units and 139 Miller units and 154 Miller units
- Miller units [10]: 164 Miller units
- β-galactosidase activity (Miller units) [10]: 161 Miller units and 184 Miller units and 164 Miller units
- Miller units [11]: 111 Miller units and 106 Miller units
- β-galactosidase activity (Miller units) [11]: 114 Miller units and 91 Miller units and 111 Miller units and 106 Miller units
- Miller units [12]: 71 Miller units and 75 Miller units and 104 Miller units and 85 Miller units
- β-galactosidase activity (Miller units) [12]: 71 Miller units and 75 Miller units and 104 Miller units and 85 Miller units
- Miller units [13]: 90 Miller units and 80 Miller units and 98 Miller units and 88 Miller units
- β-galactosidase activity (Miller units) [13]: 90 Miller units and 80 Miller units and 98 Miller units and 88 Miller units
- Miller units [14]: 120 Miller units and 101 Miller units and 124 Miller units and 107 Miller units
- β-galactosidase activity (Miller units) [14]: 120 Miller units and 101 Miller units and 124 Miller units and 107 Miller units
- Miller units [15]: 125 Miller units and 123 Miller units and 130 Miller units and 139 Miller units
- β-galactosidase activity (Miller units) [15]: 125 Miller units and 123 Miller units and 130 Miller units and 139 Miller units
- β-galactosidase activity (Miller units) (mtrC-lacZ, ΔmtrR strain, 6.25 µM hormone, single replicate): 239 Miller units
- β-galactosidase activity (Miller units) (mtrC-lacZ, ΔmtrR strain, 12.5 µM hormone, single replicate): 205 Miller units
- β-galactosidase activity (Miller units) (mtrC-lacZ, ΔmtrR strain, 25 µM hormone, single replicate): 223 Miller units
- β-galactosidase activity (Miller units) (mtrC-lacZ, ΔmtrR strain, 50 µM hormone, single replicate): 197 Miller units
- β-galactosidase activity, single replicate (mtrCDE block (c1-c37), 6.25 µM): 221 Miller units and 281 Miller units and 181 Miller units and 184 Miller units
- β-galactosidase activity, single replicate (mtrCDE block (c1-c37), 12.5 µM): 215 Miller units and 235 Miller units and 172 Miller units and 208 Miller units
- β-galactosidase activity, single replicate (mtrCDE block (c1-c37), 25 µM): 255 Miller units and 287 Miller units and 177 Miller units and 185 Miller units
- β-galactosidase activity, single replicate (mtrCDE block (c1-c37), 50 µM): 296 Miller units and 219 Miller units and 227 Miller units and 184 Miller units
- β-galactosidase activity, individual replicate (6.25 µM hormone): 41 Miller units and 35 Miller units
- β-galactosidase activity, Miller units (single replicate) (6.25 µM, first data set (c15-c36)): 115 Miller units and 113 Miller units and 101 Miller units and 103 Miller units
- β-galactosidase activity, Miller units (single replicate) (6.25 µM, second data set (c53-c74)): 37 Miller units and 29 Miller units
- β-galactosidase activity, individual replicate (12.5 µM hormone): 61 Miller units and 54 Miller units
- β-galactosidase activity, Miller units (single replicate) (12.5 µM, first data set (c15-c36)): 153 Miller units and 144 Miller units and 132 Miller units
- β-galactosidase activity, Miller units (single replicate) (12.5 µM, second data set (c53-c74)): 41 Miller units and 34 Miller units
- β-galactosidase activity, individual replicate (25 µM hormone): 90 Miller units and 65 Miller units
- β-galactosidase activity, Miller units (single replicate) (25 µM, first data set (c15-c36)): 256 Miller units and 186 Miller units and 175 Miller units and 160 Miller units
- β-galactosidase activity, Miller units (single replicate) (25 µM, second data set (c53-c74)): 66 Miller units and 58 Miller units
- β-galactosidase activity, individual replicate (50 µM hormone): 111 Miller units and 114 Miller units
- β-galactosidase activity, Miller units (single replicate) (50 µM, first data set (c15-c36)): 228 Miller units and 242 Miller units and 200 Miller units and 220 Miller units
- β-galactosidase activity, Miller units (single replicate) (50 µM, second data set (c53-c74)): 91 Miller units and 73 Miller units
- β-galactosidase activity, single replicate (second block of sheet (c39-c76), 6.25 µM): 130 Miller units and 89 Miller units and 76 Miller units and 71 Miller units
- β-galactosidase activity, single replicate (second block of sheet (c39-c76), 12.5 µM): 125 Miller units and 104 Miller units and 71 Miller units and 67 Miller units
- β-galactosidase activity, single replicate (second block of sheet (c39-c76), 25 µM): 151 Miller units and 130 Miller units and 84 Miller units and 80 Miller units
- β-galactosidase activity, single replicate (second block of sheet (c39-c76), 50 µM): 130 Miller units and 108 Miller units and 88 Miller units and 66 Miller units
